Activity calls are given as the source filed them. The calls are words filed in the database; no cut-off is given here.
Tests used:
[1] = tested on: Mus musculus; test: Potency index, ratio of indomethacin ED50 to test compound ED50 for antiinflammatory activity in ICR mouse assessed as inhibition of TPA-induced ear edema by measuring reduction in weight of ear punches applied topically; format: functional
[2] = tested on: Mus musculus; test: Antiinflammatory activity in TPA-induced ICR mouse ear edema model assessed as reduction in monocyte content at 5.7 mg/ear applied topically by giemsa staining-based microscopic method; format: functional, organism-based; conditions: TDE = time-dependent effect
[3] = tested on: Mus musculus; test: Antiinflammatory activity in ICR mouse assessed as inhibition of TPA-induced ear edema by measuring reduction in weight of ear punches applied topically measured 4 hrs post TPA-challenge relative to control; format: functional
[4] = tested on: Mus musculus; test: Antiinflammatory activity in TPA-induced ICR mouse ear edema model assessed as reduction in monocytes content AUC at 5.7 mg/ear applied topically measured 4 hrs post TPA-challenge giemsa staining-based microscopic method; format: functional; design: scale not given: the % may be the effect or the level left
[5] = tested on: Mus musculus; test: Antiinflammatory activity in TPA-induced ICR mouse ear edema model assessed as reduction in neutrophil content at 5.7 mg/ear applied topically by giemsa staining-based microscopic method; format: functional, organism-based; conditions: TDE = time-dependent effect
[6] = tested on: Mus musculus; test: Antiinflammatory activity in TPA-induced ICR mouse ear edema model assessed as reduction in number of neutrophils at 5.7 mg/ear applied topically measured 4 hrs post-TPA challenge by giemsa staining-based microscopic method; format: functional, organism-based
[7] = tested on: Mus musculus; test: Antiinflammatory activity in ICR mouse assessed as inhibition of TPA-induced ear edema by measuring reduction in weight of ear punches applied topically measured 4 hrs post TPA-challenge; format: functional
[8] = tested on: Mus musculus; test: Antiinflammatory activity in TPA-induced ICR mouse ear edema model assessed as reduction in neutrophil content AUC at 5.7 mg/ear applied topically measured 4 hrs post-TPA challenge by giemsa staining-based microscopic method relative to control; format: functional; design: scale not given: the % may be the effect or the level left
[9] = tested on: Mus musculus; test: Antiinflammatory activity in TPA-induced ICR mouse ear edema model assessed as reduction in monocytes content AUC at 10 mg/ear applied topically measured 4 hrs post TPA-challenge giemsa staining-based microscopic method; format: functional; design: scale not given: the % may be the effect or the level left
[10] = tested on: Mus musculus; test: Antiinflammatory activity in TPA-induced ICR mouse ear edema model assessed as reduction in neutrophil content at 10 mg/ear applied topically by giemsa staining-based microscopic method; format: functional, organism-based; conditions: TDE = time-dependent effect
[11] = tested on: Mus musculus; test: Antiinflammatory activity in TPA-induced ICR mouse ear edema model assessed as reduction in neutrophil content AUC at 10 mg/ear applied topically measured 4 hrs post-TPA challenge by giemsa staining-based microscopic method relative to control; format: functional; design: scale not given: the % may be the effect or the level left
[12] = tested on: Mus musculus; test: Antiinflammatory activity in TPA-induced ICR mouse ear edema model assessed as reduction in number of neutrophils at 10 mg/ear applied topically measured 4 hrs post-TPA challenge by giemsa staining-based microscopic method; format: functional, organism-based
[13] = tested on: Mus musculus; test: Antiinflammatory activity in TPA-induced ICR mouse ear edema model assessed as reduction in monocyte content at 10 mg/ear applied topically by giemsa staining-based microscopic method; format: functional, organism-based; conditions: TDE = time-dependent effect
[14] = tested on: Mus musculus; test: Antiinflammatory activity in TPA-induced ICR mouse ear edema model assessed as reduction in number of neutrophils at 3 mg/ear applied topically measured 4 hrs post-TPA challenge by giemsa staining-based microscopic method; format: functional, organism-based
[15] = tested on: Mus musculus; test: Antiinflammatory activity in TPA-induced ICR mouse ear edema model assessed as reduction in monocytes content AUC at 3 mg/ear applied topically measured 4 hrs post TPA-challenge giemsa staining-based microscopic method; format: functional; design: scale not given: the % may be the effect or the level left
[16] = tested on: Mus musculus; test: Antiinflammatory activity in TPA-induced ICR mouse ear edema model assessed as reduction in neutrophil content AUC at 3 mg/ear applied topically measured 4 hrs post-TPA challenge by giemsa staining-based microscopic method relative to control; format: functional; design: scale not given: the % may be the effect or the level left
[17] = tested on: Mus musculus; test: Antiinflammatory activity in TPA-induced ICR mouse ear edema model assessed as reduction in monocyte content at 3 mg/ear applied topically by giemsa staining-based microscopic method; format: functional, organism-based; conditions: TDE = time-dependent effect
[18] = tested on: Mus musculus; test: Antiinflammatory activity in TPA-induced ICR mouse ear edema model assessed as reduction in neutrophil content at 3 mg/ear applied topically by giemsa staining-based microscopic method; format: functional, organism-based; conditions: TDE = time-dependent effect
[19] = tested on: Mus musculus; test: Antiinflammatory activity in TPA-induced ICR mouse ear edema model assessed as reduction in number of neutrophils at 1 mg/ear applied topically measured 4 hrs post-TPA challenge by giemsa staining-based microscopic method; format: functional, organism-based
[20] = tested on: Mus musculus; test: Antiinflammatory activity in TPA-induced ICR mouse ear edema model assessed as reduction in monocytes content AUC at 1 mg/ear applied topically measured 4 hrs post TPA-challenge giemsa staining-based microscopic method; format: functional; design: scale not given: the % may be the effect or the level left
[21] = tested on: Mus musculus; test: Antiinflammatory activity in ICR mouse assessed as inhibition of TPA-induced ear edema by measuring reduction in weight of ear punches up to 1.25 mg/ear applied topically measured 4 hrs post TPA-challenge relative to control; format: functional
[22] = tested on: Mus musculus; test: Antiinflammatory activity in TPA-induced ICR mouse ear edema model assessed as reduction in neutrophil content AUC at 1 mg/ear applied topically measured 4 hrs post-TPA challenge by giemsa staining-based microscopic method relative to control; format: functional; design: scale not given: the % may be the effect or the level left

| Compound | Ratio ED50 [1] | %max [3] [%] | ED50 [7] [mg] | inhibition [7] | also measured |
| --- | --- | --- | --- | --- | --- |
| COP(=O)(OC)C(C)(COC(C)=O)N[C@@H](C)c1ccccc1 (mixture of isomers) | 0.67 | 96.1 | 0.73 to 1.37 | Dose-dependent effect | Activity [2]: Tde; Activity [4]: 18.9 - 34.1%; Activity [5]: Tde; Activity [6]: Active; Activity [8]: 46.7% |
| COP(=O)(OC)C(C)(CO)N[C@@H](C)c1ccccc1 (mixture of isomers) | 0.46 | 95.6 | 0.95 to 1.05 | Dose-dependent effect |  |
| COP(=O)(OC)C(C)(COC(C)=O)NCc1ccccc1 (racemic) | 0.33 | 97.6 | 0.68 to 1.46 | Dose-dependent effect | Activity [9]: 18.9 - 34.1%; Activity [10]: Tde; Activity [11]: 63%; Activity [12]: Active; Activity [13]: Tde |
| COc1ccc(CCNC(C)(COC(C)=O)P(=O)(OC)OC)cc1OC (racemic) | 0.37 | 97 | 0.77 to 1.29 | Dose-dependent effect | Activity [9]: 18.9 - 34.1%; Activity [10]: Tde; Activity [11]: 62.6%; Activity [12]: Active; Activity [13]: Tde |
| COc1ccc(CNC(C)(COC(C)=O)P(=O)(OC)OC)cc1 (racemic) | 0.29 | 66.1 | 0.58 to 1.73 |  |  |
| C=CCNC(C)(COC(C)=O)P(=O)(OC)OC (racemic) | 0.28 | 74.3 | 0.59 to 1.68 | Dose-dependent effect |  |
| COc1ccc(CCNC(C)(CO)P(=O)(OC)OC)cc1OC (racemic) | 0.48 | 94.6 | 0.99 to 1 | Dose-dependent effect |  |
| COP(=O)(OC)C(C)(CO)NCc1ccccc1 (racemic) | 0.13 | 81.6 | 0.28 to 3.63 | Dose-dependent effect |  |
| COP(=O)(OC)C(C)(COC(C)=O)NCC1CCCCC1 (racemic) | 0.5 | 93 | 0.95 to 1.05 | Dose-dependent effect | Activity [14]: Active; Activity [15]: 18.9 - 34.1%; Activity [16]: 62.9%; Activity [17]: Tde; Activity [18]: Tde |
| COP(=O)(OC)C(C)(O)COC(C)=O (racemic) | 0.04 | 47.2 | 0.1 to 10.14 |  |  |
| COc1ccc2c(c1)c(CC(=O)O)c(C)n2C(=O)c1ccc(Cl)cc1 [INDOMETHACIN] |  | 99.3 | 0.49 | Dose-dependent effect | Activity [19]: Active; Activity [20]: 64.2%; inhibition (INH) [21]: 14.6 - 99.3%; Activity [22]: 57.7% |
